Molecules are shown by their SMILES. Active and inactive are the calls of the source.

The target of one test is T1, Leucine aminopeptidase (Plasmodium falciparum 3D7, UniProt Q8IL11).
T1 sequence (Q8IL11 whole entry): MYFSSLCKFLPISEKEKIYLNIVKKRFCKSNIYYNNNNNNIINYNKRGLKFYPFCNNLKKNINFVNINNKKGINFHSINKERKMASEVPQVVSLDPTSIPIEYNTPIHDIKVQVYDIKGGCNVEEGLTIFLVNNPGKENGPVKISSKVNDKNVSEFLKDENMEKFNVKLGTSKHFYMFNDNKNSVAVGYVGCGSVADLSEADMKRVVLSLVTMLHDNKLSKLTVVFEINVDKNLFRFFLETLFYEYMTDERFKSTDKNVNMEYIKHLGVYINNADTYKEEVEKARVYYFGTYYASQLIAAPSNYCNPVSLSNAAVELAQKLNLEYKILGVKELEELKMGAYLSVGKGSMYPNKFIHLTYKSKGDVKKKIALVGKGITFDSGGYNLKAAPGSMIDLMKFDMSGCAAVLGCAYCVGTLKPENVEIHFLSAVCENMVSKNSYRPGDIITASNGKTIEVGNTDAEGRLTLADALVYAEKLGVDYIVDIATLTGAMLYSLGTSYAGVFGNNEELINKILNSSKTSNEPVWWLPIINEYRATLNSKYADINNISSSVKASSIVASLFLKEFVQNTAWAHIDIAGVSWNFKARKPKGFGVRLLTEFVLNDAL
Kind of test: P. falciparum M17LAP inhibitors, primary screen, biochemical, fluorogenic H-Leu-NHMec substrate, 1536-well (AID 1619). The format is functional.

Test [1] deals with T2, Heat shock factor protein 1 (Mus musculus, UniProt P38532).
T2 sequence (P38532 whole entry): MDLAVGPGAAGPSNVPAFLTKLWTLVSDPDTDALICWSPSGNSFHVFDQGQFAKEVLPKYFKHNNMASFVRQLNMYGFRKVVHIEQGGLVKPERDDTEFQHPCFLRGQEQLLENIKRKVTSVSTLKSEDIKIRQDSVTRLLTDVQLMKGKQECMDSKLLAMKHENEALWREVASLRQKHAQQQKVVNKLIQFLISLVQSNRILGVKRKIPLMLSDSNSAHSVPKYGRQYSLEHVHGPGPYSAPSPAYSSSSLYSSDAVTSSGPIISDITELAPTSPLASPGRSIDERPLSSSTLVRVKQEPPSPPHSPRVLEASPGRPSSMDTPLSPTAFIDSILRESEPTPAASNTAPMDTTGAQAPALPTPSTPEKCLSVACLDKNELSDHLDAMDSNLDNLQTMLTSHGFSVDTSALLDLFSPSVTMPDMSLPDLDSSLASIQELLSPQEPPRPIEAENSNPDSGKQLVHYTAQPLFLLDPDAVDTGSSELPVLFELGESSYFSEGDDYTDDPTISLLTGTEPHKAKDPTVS
Kind of test: inhibition of MG132-induced HSE-luciferase signal, confirmation, cell-based, NIH3T3, luminescence, dose retest (AID 2382).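 Note: NIH3T3 fibroblasts with HSF1-driven luciferase reporter stressed by proteasome inhibitor MG132; luminescence from HSF1-driven luciferase expression after 8 hours of MG132 stress.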 The test is classed as functional.

In test [2] the target is T3, Microphthalmia-associated transcription factor (Homo sapiens, UniProt O75030).
T3 sequence (O75030 whole entry): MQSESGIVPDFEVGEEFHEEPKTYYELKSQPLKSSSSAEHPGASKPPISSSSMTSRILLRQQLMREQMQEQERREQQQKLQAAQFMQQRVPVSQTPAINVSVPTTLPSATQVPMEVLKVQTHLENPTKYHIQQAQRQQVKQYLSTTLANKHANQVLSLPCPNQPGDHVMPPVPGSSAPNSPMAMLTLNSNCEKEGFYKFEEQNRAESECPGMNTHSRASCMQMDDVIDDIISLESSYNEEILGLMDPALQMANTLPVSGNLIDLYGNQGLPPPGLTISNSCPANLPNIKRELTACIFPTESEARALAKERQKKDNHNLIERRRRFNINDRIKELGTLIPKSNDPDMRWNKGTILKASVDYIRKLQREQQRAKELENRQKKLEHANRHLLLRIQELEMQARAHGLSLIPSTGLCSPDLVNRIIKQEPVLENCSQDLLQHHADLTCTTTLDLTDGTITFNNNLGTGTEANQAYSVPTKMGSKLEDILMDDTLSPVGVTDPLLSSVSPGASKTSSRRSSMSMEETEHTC
Nature of the test: TRPM1 promoter luciferase signal decrease, dose response, MITF inhibitor project, cell-based, SK-MEL-5, cherry-picked, set 3 (AID 493073).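 Note: SK-MEL-5 melanoma cells with luciferase driven by the MITF target TRPM1 promoter.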 The format is functional.

The target in test [3] is T4, Luciferin 4-monooxygenase (Photuris pensylvanica, UniProt Q27757).
T4 sequence (Q27757 whole entry): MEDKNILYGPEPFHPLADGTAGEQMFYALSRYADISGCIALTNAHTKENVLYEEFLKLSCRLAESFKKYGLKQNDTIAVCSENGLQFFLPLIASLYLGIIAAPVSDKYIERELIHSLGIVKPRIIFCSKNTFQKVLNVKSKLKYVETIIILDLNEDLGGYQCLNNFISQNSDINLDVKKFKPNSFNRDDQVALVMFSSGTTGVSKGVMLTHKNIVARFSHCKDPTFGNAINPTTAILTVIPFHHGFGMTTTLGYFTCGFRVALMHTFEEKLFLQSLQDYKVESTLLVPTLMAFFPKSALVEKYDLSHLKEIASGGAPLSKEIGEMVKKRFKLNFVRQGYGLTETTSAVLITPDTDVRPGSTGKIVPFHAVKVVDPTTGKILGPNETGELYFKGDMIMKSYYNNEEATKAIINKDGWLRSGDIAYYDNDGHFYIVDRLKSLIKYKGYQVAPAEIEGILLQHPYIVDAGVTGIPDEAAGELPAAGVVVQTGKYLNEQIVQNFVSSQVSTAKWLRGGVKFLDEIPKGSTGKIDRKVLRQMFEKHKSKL
Nature of the test: firefly luciferase enzyme inhibitors, dose response, counter-screen for HSF-1 reporter inhibitor project, biochemical, Cell Titer Glo, luminescence, cherry-picks (AID 588847).

For test [4], the target named is T5, Long-chain-fatty-acid--AMP ligase FadD28 (Mycobacterium tuberculosis, UniProt P9WQ59).
T5 sequence (P9WQ59 whole entry): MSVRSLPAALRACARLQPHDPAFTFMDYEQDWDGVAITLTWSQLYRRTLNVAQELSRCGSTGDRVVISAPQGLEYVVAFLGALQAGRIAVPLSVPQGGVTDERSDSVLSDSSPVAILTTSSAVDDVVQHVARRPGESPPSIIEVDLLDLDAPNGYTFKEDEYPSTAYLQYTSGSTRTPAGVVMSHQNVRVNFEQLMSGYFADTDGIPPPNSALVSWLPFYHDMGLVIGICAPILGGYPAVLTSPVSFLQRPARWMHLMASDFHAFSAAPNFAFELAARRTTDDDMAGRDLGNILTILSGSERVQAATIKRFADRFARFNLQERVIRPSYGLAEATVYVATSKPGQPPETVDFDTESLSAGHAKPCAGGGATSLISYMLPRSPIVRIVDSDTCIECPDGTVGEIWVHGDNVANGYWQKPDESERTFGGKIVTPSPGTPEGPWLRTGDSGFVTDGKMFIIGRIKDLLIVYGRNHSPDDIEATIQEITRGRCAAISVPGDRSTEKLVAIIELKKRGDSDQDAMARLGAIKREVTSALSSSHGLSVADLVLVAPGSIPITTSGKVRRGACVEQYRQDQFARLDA
Kind of test: Fluorescence polarization aasay to screen for inhibitors that compete for the binding of FadD28 to a bisubstrate Measured in Biochemical System Using Plate Reader - 2147-01_Inhibitor_Dose_CherryPick_Activity. The test is classed as functional, Mycobacterium tuberculosis H37Rv.

The target of test [5] is T6, Rac GTPase-activating protein 1 (Homo sapiens, UniProt Q9H0H5).
T6 sequence (Q9H0H5 whole entry): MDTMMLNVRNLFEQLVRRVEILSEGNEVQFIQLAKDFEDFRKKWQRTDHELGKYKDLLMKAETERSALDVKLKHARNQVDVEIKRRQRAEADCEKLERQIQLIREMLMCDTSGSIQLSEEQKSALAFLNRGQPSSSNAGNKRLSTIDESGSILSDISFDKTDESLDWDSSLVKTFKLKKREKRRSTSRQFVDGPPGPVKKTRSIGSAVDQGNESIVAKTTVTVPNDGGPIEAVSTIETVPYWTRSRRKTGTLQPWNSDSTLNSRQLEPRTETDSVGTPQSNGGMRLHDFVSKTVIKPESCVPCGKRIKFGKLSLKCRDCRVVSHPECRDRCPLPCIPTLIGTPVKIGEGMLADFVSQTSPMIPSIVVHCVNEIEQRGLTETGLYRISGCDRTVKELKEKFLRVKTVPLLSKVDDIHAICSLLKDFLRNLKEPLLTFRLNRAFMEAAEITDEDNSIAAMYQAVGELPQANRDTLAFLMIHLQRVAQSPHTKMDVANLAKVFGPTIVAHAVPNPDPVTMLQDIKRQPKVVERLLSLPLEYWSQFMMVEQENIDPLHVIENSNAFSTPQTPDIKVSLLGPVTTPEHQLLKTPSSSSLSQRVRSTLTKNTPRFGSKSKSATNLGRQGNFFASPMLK
Kind of test: MgcRacGAP GTPase-activating activity inhibitors, confirmation, biochemical, ADP Hunter fluorescence, primary and confirmatory (AID 624330). The format is functional.

Test [6] can be described thus: NIH-3T3 fibroblast cytotoxicity, dose response, cytotoxicity control, cell-based, fluorescence, Alamar Blue, secondary assay (AID 2327).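 Note: NIH-3T3 mouse fibroblasts cultured with fluconazole at 8 µg/mL.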 The test is classed as functional.
Test [7] is described as follows: C. albicans growth with fluconazole, confirmation, fluorescence, retest (AID 2467). The format is functional, cell-based.
For test [8], the target named is T7, Serine/threonine-protein phosphatase (Candida dubliniensis (strain CD36 / CBS 7987 / NCPF 3949 / NRRLY-17841) (Yeast), UniProt B9W6M3).
T7 sequence (B9W6M3 whole entry): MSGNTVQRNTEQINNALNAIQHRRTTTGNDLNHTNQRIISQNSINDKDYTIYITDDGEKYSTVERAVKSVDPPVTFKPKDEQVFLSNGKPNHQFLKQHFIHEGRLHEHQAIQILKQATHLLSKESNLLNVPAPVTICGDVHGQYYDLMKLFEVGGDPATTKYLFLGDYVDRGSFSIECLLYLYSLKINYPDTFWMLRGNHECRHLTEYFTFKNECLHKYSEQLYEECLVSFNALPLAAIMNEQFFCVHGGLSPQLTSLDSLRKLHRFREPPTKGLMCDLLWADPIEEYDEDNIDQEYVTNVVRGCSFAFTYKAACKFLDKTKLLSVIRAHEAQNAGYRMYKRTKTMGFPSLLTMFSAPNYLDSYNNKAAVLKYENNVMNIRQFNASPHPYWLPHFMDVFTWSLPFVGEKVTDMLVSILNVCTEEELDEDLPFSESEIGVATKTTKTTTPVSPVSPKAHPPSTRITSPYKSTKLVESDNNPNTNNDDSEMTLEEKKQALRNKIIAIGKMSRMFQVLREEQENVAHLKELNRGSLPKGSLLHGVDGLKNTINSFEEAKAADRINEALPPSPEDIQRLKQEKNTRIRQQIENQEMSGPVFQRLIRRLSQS
Kind of test: calcineurin pathway inhibitors in yeast reporter, dose response, S. cerevisiae, CDRE-lacZ, luminescence, secondary (AID 2388).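 Note: yeast reporter cells carrying a calcineurin-responsive lacZ construct stimulated with calcium chloride; luminescent beta-galactosidase reporter signal in whole cells rather than isolated phosphatase activity; potency for inhibition where a drop in reporter signal means calcineurin blockade.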 The format is functional, cell-based.

Test [9] concerns the target ATP-dependent molecular chaperone HSP82 (Candida albicans (strain WO-1) (Yeast), UniProt C4YTQ8). Nature of the test: loss of DOC-induced GRE-beta-galactosidase reporter signal, dose response, Hsp90 inhibitor project, S. cerevisiae, luminescence (AID 2400).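 Note: beta-galactosidase luminescence from glucocorticoid response element reporter as proxy for Hsp90 function; inhibitor potency where signal loss means Hsp90 inhibition.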 The test is classed as functional, cell-based.

Chain of ATP-dependent molecular chaperone HSP82 (C4YTQ8 whole entry): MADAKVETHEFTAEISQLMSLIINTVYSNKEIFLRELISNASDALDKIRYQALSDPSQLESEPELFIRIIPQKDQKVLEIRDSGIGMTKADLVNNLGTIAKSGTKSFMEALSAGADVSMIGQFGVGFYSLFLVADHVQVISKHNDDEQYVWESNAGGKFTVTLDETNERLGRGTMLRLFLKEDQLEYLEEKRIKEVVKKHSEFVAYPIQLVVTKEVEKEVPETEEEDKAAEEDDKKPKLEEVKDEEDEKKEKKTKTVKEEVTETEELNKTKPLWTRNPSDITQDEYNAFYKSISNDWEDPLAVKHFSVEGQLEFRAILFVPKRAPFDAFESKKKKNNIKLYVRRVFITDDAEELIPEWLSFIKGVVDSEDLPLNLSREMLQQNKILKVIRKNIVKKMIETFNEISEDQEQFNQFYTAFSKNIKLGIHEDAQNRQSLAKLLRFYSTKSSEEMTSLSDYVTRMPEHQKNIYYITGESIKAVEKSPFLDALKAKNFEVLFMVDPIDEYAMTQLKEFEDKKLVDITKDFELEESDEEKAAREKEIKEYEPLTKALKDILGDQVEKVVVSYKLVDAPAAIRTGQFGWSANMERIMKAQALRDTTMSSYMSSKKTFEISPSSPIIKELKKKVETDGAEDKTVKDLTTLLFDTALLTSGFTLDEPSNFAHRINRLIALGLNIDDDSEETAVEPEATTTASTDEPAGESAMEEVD

For the molecule `Cc1ccc(/C=N/Nc2ccc(C(=O)O)cc2)s1`, the IC50 at Leucine aminopeptidase is 20.4 µM (active); in [5] it was 89.2 µM (active). In addition, the concentration for a half-maximal effect (EC50) in test [1] was < 0.16 µM (active). Besides, the concentration at half-maximal activity (AC50) in test [2] is 3.3 µM (active); in test [3], 0.721 µM (active); in [4], 37.8 µM (active).
Consider `N=C(Cc1ccccc1)NOC(=O)c1cccc2ccccc12`, for which the EC50 in [6] was 19.3 µM (active); in test [7], 0.717 µM (active); in test [8], > 180 µM (inactive); in test [9] it was 14 µM (active).

These data come from ChEMBL document CHEMBL1201862, “PubChem BioAssay data set” (2004).
